Earlier results in paper PMC8198792, “Prediction of Anticancer Peptides with High Efficacy and Low Toxicity by Hybrid Model Based on 3D Structure of Peptides” (International Journal of Molecular Sciences, 2021).
Read-outs that look alike come from different tables or passages of the source.

Legend:
[1] = tested on: many types of cells, including non-cancer cells; settings: toxic peptides dataset TD2; class label 1 (toxic, positive set) or 0 (non-toxic AMP, negative set); ref SATPdb; cited from earlier work
cancer cell lines = tested on: cancer cell lines; parameters: method as in 6 sources, ref CancerPPD [45] and SATPdb ||| ref CancerPPD/SATPdb ||| ref CancerPPD, SATPdb, Swissprot (PDB) ||| ref CancerPPD/SATPdb/Swissprot(PDB) ||| ref CancerPPD / SATPdb ||| ...; settings: cited from earlier work
Source text: Supplement ijms-22-05630-s001.zip/ACPs(seguence).xlsx, sheet "D1" | column: Activity || Supplement ijms-22-05630-s001.zip/ACPs(seguence).xlsx, sheet "D2" | column: Activity || Supplement ijms-22-05630-s001.zip/ACPs(seguence).xlsx, sheet "D3" | column: Activity || (+ 2 further places)

erythrocytes = settings: cited from earlier work
Source text: Supplement ijms-22-05630-s001.zip/Hemloytic Peptides(seguence).xlsx, sheet "HD1" | column: Activity || Supplement ijms-22-05630-s001.zip/Hemloytic Peptides(seguence).xlsx, sheet "HD2" | column: Activity || Supplement ijms-22-05630-s001.zip/Hemloytic Peptides(seguence).xlsx, sheet "HD3" | column: Activity

[2] = ACPs dataset D1, label 1 = ACP, 0 = non-ACP (non-anticancer AMPs from SATPdb), ref CancerPPD/SATPdb
[3] = ACPs dataset D4 (sheet "D4"), label 1 = ACP (CancerPPD ID), 0 = non-ACP (non-anticancer AMP, SATPdb ID), ref CancerPPD [45] and SATPdb
[4] = ACPs dataset D3 (supplement sheet "D3"), 1 = ACP, 0 = non-ACP, ref CancerPPD [45] and SATPdb
[5] = ACPs dataset D4 (sheet "D4"), label 1 = ACP, 0 = non-ACP, ref CancerPPD / SATPdb
[6] = ACPs dataset D5, sheet "D5", label 1 = ACP, 0 = non-ACP, ref CancerPPD [45] and SATPdb
[7] = Hemolytic peptides dataset HD2, label 1 = hemolytic, 0 = non-hemolytic, ref Hemolytik/SATPdb
[8] = hemolytic peptides dataset HD3, 1 = hemolytic (positive set), 0 = non-hemolytic (negative set), labels taken from databases, ref Hemolytik/SATPdb
[9] = ACPs dataset D3 (sheet "D3"), label 1 = ACP, 0 = non-ACP, ref CancerPPD/SATPdb

ILPWKWPWWPWRR [satpdb22480]
Activity [1]: 1

GLFDIVKKIAGHIVSSI [satpdb13076]
Activity [1]: 0

GLVTSLIKGAGKLLGGLFGSVTG [satpdb15873]
Activity [1]: 0

GLLDFVTGVGKDIFAQLIKQI [satpdb25435]
Activity [1]: 1

IIGPVLGLVGKPLESLLE [satpdb17226]
Activity [1]: 0

FFPLLFGALSSHLPKLF [satpdb16485]
Activity [1]: 1

GLVTGLLKTAGKLLGDLFGSLTG [satpdb19701]
Activity [1]: 1

GWLRKAAKSVGKFYYKHKYYIKAAWKIGRHAL [satpdb17212]
Activity [1]: 0

RRIPRPILLPWRPPRPIPRPQPQPIPRWL [satpdb15488]
Activity [1]: 0

FLSAITSLLGKLL [satpdb15955]
Activity [1]: 0

GIGGALLSAGKAALKGLAKVLV [satpdb22839]
Activity [1]: 1

LLGMIPLAISAISALSKL [satpdb26571]
Activity [1]: 1

FLPLLFGALSTLLPKIF [satpdb23665]
Activity [1]: 1

FIGAILPAIAGLVHGLINR [satpdb19442]
Activity [1]: 1

GLLDIVKKVVGAFGSL [satpdb12368]
Activity [1]: 0

GLLSFLPKVIGVIGHLIHPPS [satpdb15305]
Activity [1]: 0

ILPILSLIGGLLGK [satpdb11856]
Activity [1]: 0

SAPRGCWTKSYPPKPCK [satpdb28266]
Activity [1]: 1

GMWSKILGHLIR [satpdb20159]
Activity [1]: 1

KISKKIMRTFLRRILTGKK [satpdb19592]
Activity [1]: 1

GLGSLVGNALRIGAKLL [satpdb15217]
Activity [1]: 0

ALKAALLAILKIVRVIKK [satpdb15928]
Activity [1]: 0

IIGAIAAALPHVINAIKNTF [satpdb19948]
Activity [1]: 1

GFGPAFHSVSNFAKKHKTA [satpdb16916]
Activity [1]: 0

LLDVLLE [satpdb11533]
Activity [1]: 0

FLSGIVGMLGKLF [satpdb21516]
Activity [1]: 1

GVLDILKNAAKNILAHAAEQI [satpdb26113]
Activity [1]: 1

FFGWLIKGAIHAGKAIHGLIHRRRH [satpdb28313]
Activity [1]: 1

FLGAIAAALPHVINAVTNAL [satpdb16106]
Activity [1]: 1

GALRGCWTKSYPPKPCK [satpdb24908]
Activity [1]: 1

GLWQKIKNAAGDLASGIVEGIKS [satpdb17290]
Activity [1]: 0

NFLGTLVNLAKKIL [satpdb20410]
Activity [1]: 1

FISGLIGGLMKAL [satpdb16102]
Activity [1]: 0

FFGAIAAALPHVISAIKNAL [satpdb28842]
Activity [1]: 1

GVLSVIKNALPGIMRF [satpdb16950]
Activity [1]: 0

VDIHVWD*GV [satpdb19274]
Activity [1]: 1

GVVTDLLKTAGKLLGNLVGSLSG [satpdb26504]
Activity [1]: 1

FIPLVSGLFSRLL [satpdb15094]
Activity [1]: 0

GVVDILKGAGKDLLAHLVGKISEKV [satpdb27434]
Activity [1]: 1

GMASKAGSVLGKLAKVAIGAL [satpdb16457]
Activity [1]: 0

KAYSMPRCKYLFRAVLCWL [satpdb15879]
Activity [1]: 0

GFKDLLKGAAKALVKTVLF [satpdb25277]
Activity [1]: 1

FLPLIGKILGTIL [satpdb15913]
Activity [1]: 0

GFKRIVQRIKDFLRNLV [satpdb10735]
Activity [1]: 0

RILRGVSRRIMRRILTGRR [satpdb20239]
Activity [1]: 1

FLGLLGSLL [satpdb15039]
Activity [1]: 0

LLLFLLKKRKKRKY [satpdb12213]
Activity (cancer cell lines; [2]): 0 | Activity (cancer cell lines; [3]): 0 | Activity (erythrocytes): 1 | Activity (dataset HD1, hemolytic 1 / non-hemolytic 0) (erythrocytes): 1

yPVKLyPVKL [satpdb11316]
Activity (cancer cell lines; [4]): 0 | Activity (cancer cell lines; [5]): 0 | Activity (cancer cell lines; [6]): 0 | Activity (erythrocytes; [7]): 1 | Activity (erythrocytes; [8]): 1

GKKLLKKLKKLLKKW [satpdb10586]
Activity (cancer cell lines; [4]): 0 | Activity (cancer cell lines; [5]): 0 | Activity (cancer cell lines; [6]): 0 | Activity (erythrocytes): 1

FLPILAGLAAKIVPKLFCLATKKC [satpdb11778]
Activity (cancer cell lines; [2]): 0 | Activity (cancer cell lines; [3]): 0 | Activity (erythrocytes): 1 | Activity (dataset HD1, hemolytic 1 / non-hemolytic 0) (erythrocytes): 1

KKKAAAFAAWAAFAKKK [satpdb11969]
Activity (cancer cell lines; [9]): 0 | Activity (cancer cell lines; [5]): 0 | Activity (cancer cell lines; [6]): 0 | Activity (erythrocytes): 0

GFMKYIKPLIPHAVKAIKKLI [satpdb12244]
Activity (cancer cell lines; [9]): 0 | Activity (cancer cell lines; [5]): 0 | Activity (cancer cell lines; [6]): 0 | Activity (erythrocytes): 1

RRWPWWPWKWPLI [satpdb10003]
Activity (cancer cell lines; [4]): 0 | Activity (cancer cell lines; [5]): 0 | Activity (cancer cell lines; [6]): 0 | Activity (erythrocytes): 1

FKCKKVVISLRRY [satpdb11913]
Activity (cancer cell lines; [2]): 0 | Activity (cancer cell lines; [3]): 0 | Activity (erythrocytes; [8]): 0 | Activity (dataset HD1, hemolytic 1 / non-hemolytic 0) (erythrocytes; natural hemolytic peptide dataset HD1, label collected from databases, ref Hemolytik [49], SATPdb [34]): 0

QLKVDLWGTRSGIQPEQHSSGKSDVRRWRSRY [satpdb10403]
Activity (cancer cell lines; [4]): 0 | Activity (cancer cell lines; [5]): 0 | Activity (cancer cell lines; [6]): 0 | Activity (erythrocytes): 0

FLPLIGRVLSGAL [satpdb13300]
Activity (cancer cell lines; [9]): 0 | Activity (cancer cell lines; [5]): 0 | Activity (cancer cell lines; [6]): 0 | Activity (erythrocytes): 1

KKKLLLLLLLLLKKK [satpdb10761]
Activity (cancer cell lines; [4]): 0 | Activity (cancer cell lines; [5]): 0 | Activity (cancer cell lines; [6]): 0 | Activity (erythrocytes; [7]): 1 | Activity (erythrocytes; [8]): 1

KWKSFLKTFKSAKKTVLHTALKLISS [satpdb12569]
Activity (cancer cell lines; [9]): 0 | Activity (cancer cell lines; [5]): 0 | Activity (cancer cell lines; [6]): 0 | Activity (erythrocytes): 1

LLIILKKKWKKQAKAKSK [satpdb13450]
Activity (cancer cell lines; [9]): 0 | Activity (cancer cell lines; [5]): 0 | Activity (cancer cell lines; [6]): 0 | Activity (erythrocytes; [7]): 1 | Activity (erythrocytes; [8]): 1

DAACAAKCLWR [satpdb10773]
Activity (cancer cell lines; [4]): 0 | Activity (cancer cell lines; [5]): 0 | Activity (cancer cell lines; [6]): 0 | Activity (erythrocytes; [7]): 0 | Activity (erythrocytes; [8]): 0

RWSVYAYVRVRGVLVRYRRSW [satpdb10414]
Activity (cancer cell lines; ACPs dataset D1, 1 = ACP (positive), 0 = non-ACP (negative), label taken from databases, ref CancerPPD [45] and SATPdb): 0 | Activity (cancer cell lines; [3]): 0 | Activity (erythrocytes): 1 | Activity (dataset HD1, hemolytic 1 / non-hemolytic 0) (erythrocytes): 1

GLLGPLLKIAAKVGKKLL [satpdb11754]
Activity (cancer cell lines; [4]): 0 | Activity (cancer cell lines; [5]): 0 | Activity (cancer cell lines; [6]): 0 | Activity (erythrocytes): 1

FLPILGKLLSGIL [satpdb10106]
Activity (cancer cell lines; [4]): 0 | Activity (cancer cell lines; [5]): 0 | Activity (cancer cell lines; [6]): 0 | Activity (erythrocytes; [7]): 1 | Activity (erythrocytes; [8]): 1

KKLFKKiLKYL [satpdb14620]
Activity (cancer cell lines; [9]): 0 | Activity (cancer cell lines; [5]): 0 | Activity (cancer cell lines; [6]): 0 | Activity (erythrocytes): 0

LLIILRRRWRKQAKAKSK [satpdb12920]
Activity (cancer cell lines; [9]): 0 | Activity (cancer cell lines; [5]): 0 | Activity (cancer cell lines; [6]): 0 | Activity (erythrocytes): 1

ALWFTMLKKLGTMALHAGKAALGAAANTISQGTQ [satpdb13357]
Activity (cancer cell lines; [2]): 0 | Activity (cancer cell lines; [5]): 0 | Activity (erythrocytes): 1 | Activity (dataset HD1, hemolytic 1 / non-hemolytic 0) (erythrocytes): 1

VKLkVyPLKVKLyP [satpdb13685]
Activity (cancer cell lines; [9]): 0 | Activity (cancer cell lines; [5]): 0 | Activity (cancer cell lines; [6]): 0 | Activity (erythrocytes): 1

ILPKKKPWWPWRR [satpdb13640]
Activity (cancer cell lines; [9]): 0 | Activity (cancer cell lines; [5]): 0 | Activity (cancer cell lines; [6]): 0 | Activity (erythrocytes): 1
